Experimental data from PMC5740070 (Scientific Reports, 2017).
pKi: −log10 of the molar value. Read-outs that look alike come from different tables or passages of the source. Each block holds one compound with its values, some of them ahead of it.

Columns and labels:
[1] = Tolerability and body weight in systemic efficacy studies
Description: For systemic drug efficacy studies, mice were enrolled when tumors reached an average volume of 150–200 mm^3. Assignment to treatment groups was carried out via stratified randomization. Tumor dimensions were measured twice a week using digital calipers along with recording of body weight. Tumor volume was calculated using formula V = π/6 (length x width x height) in mm^3 [46]. Animals were removed from the study when either any one of the three measured dimensions of the tumor exceeded 2 cm, volume exceeded 2000 mm^3, ulceration was observed or if body weight loss greater than 20% was recorded. […] Control cohorts were administered vehicles of both drugs, and each single agent cohort was administered the vehicle of the other drug.

BCL-xL in OCI-LY10 cells = assay: Western blot for BCL-xL in ABC cell lines; type: cell-based; details: voruciclib 5 µM, venetoclax 50 nM or combination, 24 hours
From the text: Error bars represent SEM.
ECL chemiluminescent substrate (Pierce) and autoradiographic film (ThermoFisher) were used for detection of signals. MCL-1 and BCL-xL signals were quantified using Image Studio Lite (LICOR Biosciences) using β actin for normalization. Student’s t-test was used to compare mean signal intensities across different conditions. The level of significance was set at 0.05.

[2] = test system: relapsed or refractory non-Hodgkin lymphoma (NHL); set-up: method as in PMID 28095146; details: relapsed or refractory NHL patients, venetoclax alone; cited from earlier work
MAK = target: T1, MAK (Homo sapiens, UniProt P20794); assay: Reaction Biology radiometric filter binding kinase assay (10-point IC50 converted to Ki); type: biochemical; details: ATP near Km; Ki calculated from 10-point IC50
T1 construct: purchased Reaction Biology Corp (contract assay)
T1 sequence (P20794 1-623): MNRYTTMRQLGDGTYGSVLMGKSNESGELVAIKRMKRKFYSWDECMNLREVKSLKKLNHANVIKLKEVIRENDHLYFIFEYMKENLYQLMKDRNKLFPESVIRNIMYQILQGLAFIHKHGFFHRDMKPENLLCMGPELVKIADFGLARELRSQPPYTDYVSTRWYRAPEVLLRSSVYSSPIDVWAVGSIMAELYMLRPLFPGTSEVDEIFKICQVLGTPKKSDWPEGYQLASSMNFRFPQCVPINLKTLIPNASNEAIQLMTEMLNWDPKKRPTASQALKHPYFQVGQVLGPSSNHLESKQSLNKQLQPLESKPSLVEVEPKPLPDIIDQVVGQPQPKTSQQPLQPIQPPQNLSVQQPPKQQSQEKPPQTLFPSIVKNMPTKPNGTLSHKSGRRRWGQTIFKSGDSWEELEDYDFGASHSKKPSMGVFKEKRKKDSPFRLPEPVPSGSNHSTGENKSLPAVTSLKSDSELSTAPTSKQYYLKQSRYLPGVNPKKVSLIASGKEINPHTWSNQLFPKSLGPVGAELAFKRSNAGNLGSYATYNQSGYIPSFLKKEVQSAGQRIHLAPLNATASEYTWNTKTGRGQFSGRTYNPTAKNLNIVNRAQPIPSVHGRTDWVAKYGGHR
Description: (§1) Ki values for each target were calculated and compared for the two drugs (Fig. 1b–d).
(§2) The ATP concentration was near the Km values for the respective kinases. For each kinase, an IC50 value was calculated from a 10-point concentration curve of the test article and converted to Ki values.

ICK = target: T2, ICK (Homo sapiens, UniProt Q9UPZ9); assay: as above; type: biochemical; details: ATP near Km; Ki calculated from 10-point IC50
T2 construct: purchased Reaction Biology Corp (contract assay)
T2 sequence (Q9UPZ9 1-632): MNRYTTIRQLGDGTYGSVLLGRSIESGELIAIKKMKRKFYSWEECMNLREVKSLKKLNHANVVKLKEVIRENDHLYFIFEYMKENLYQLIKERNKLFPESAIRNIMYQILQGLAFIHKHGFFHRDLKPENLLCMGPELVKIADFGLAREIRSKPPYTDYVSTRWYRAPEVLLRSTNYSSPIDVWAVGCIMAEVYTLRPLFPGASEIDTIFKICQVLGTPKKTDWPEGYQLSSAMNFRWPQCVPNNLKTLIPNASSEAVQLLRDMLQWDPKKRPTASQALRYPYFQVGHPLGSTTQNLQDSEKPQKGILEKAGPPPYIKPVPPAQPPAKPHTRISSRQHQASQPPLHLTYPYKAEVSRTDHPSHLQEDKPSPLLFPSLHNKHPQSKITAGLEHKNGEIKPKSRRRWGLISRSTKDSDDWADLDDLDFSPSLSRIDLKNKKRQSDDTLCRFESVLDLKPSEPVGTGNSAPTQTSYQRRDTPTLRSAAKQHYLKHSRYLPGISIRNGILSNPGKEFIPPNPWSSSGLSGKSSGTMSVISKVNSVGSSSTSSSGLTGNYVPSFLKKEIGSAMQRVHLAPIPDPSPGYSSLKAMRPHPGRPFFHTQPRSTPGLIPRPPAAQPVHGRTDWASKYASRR
Description: as §1, §2

[3] = cited from earlier work
[4] = test system: MCL-1 and cPARP in U2932, RIVA, OCI-LY10, NU-DHL-1, SU-DHL-4 and SU-DHL-6 cells; assay: Western blot for MCL-1 and cPARP in DLBCL cell lines; type: cell-based; details: 0.5 µM–5 µM for 6 hours
Description: (§3) Maximum, average and minimum plasma levels are shown by the red, green and blue lines respectively. The parameter set derived from the PK data after 13/15 days dosing was used for the 15-day simulation for the steady state levels attained after repeat dosing. (b) Western blot analyses for RNA POL II (pSer2), MCL-1, cPARP using protein lysates isolated from SU-DHL-4 cells. β actin was used as the loading control. […] Tumors were resected 4 hours after the final dose and processed for both Western blot and IHC analyses. β actin was used as loading control for the Western blot where each lane represents an individual tumor (Tumor (T) #1-9). MCL-1 signals, normalized to β actin, were quantified and the average MCL-1 signal for each condition relative to vehicle is shown in the corresponding bar graph. Error bars represent standard error of the mean (SEM). Asterisks (*) denote p value < 0.05 calculated using the Student’s t-test for comparison of vehicle vs treatment. DAPI was used as counterstain for IHC. Representative images are shown. Scale bar: 1000 µm.
RI-1, also known as RIVA, U2932, NU-DHL-1 cell lines were purchased from DSMZ. SU-DHL-4, SU-DHL-6 were purchased from ATCC. All lines were cultured in RPMI 1640 with L-Glutamine (ThermoFisher),10% fetal bovine serum (Thermofisher), at 37 degrees Celsius, 5% CO2. […]

RNA POL II (pSer2) = assay: Western blot for RNA POL II (pSer2) in SU-DHL-4 cells; type: cell-based
CDK6/cyc D1 = target: T3, CDK6/cyc D1 (Homo sapiens, UniProt Q00534); assay: Reaction Biology radiometric filter binding kinase assay (10-point IC50 converted to Ki); type: biochemical; details: ATP near Km; Ki calculated from 10-point IC50
T3 construct: purchased Reaction Biology Corp (contract assay)
T3 sequence (Q00534 whole entry): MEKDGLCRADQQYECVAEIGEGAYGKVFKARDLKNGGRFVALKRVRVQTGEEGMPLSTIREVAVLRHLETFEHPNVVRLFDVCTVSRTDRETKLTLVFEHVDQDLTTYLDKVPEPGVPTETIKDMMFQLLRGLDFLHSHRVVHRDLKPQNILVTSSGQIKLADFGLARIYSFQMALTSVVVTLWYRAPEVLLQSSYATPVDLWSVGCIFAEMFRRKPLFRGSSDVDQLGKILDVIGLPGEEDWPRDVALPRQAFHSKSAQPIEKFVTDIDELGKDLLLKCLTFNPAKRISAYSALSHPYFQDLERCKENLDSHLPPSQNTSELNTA
T3 sequence (P24385 whole entry partner): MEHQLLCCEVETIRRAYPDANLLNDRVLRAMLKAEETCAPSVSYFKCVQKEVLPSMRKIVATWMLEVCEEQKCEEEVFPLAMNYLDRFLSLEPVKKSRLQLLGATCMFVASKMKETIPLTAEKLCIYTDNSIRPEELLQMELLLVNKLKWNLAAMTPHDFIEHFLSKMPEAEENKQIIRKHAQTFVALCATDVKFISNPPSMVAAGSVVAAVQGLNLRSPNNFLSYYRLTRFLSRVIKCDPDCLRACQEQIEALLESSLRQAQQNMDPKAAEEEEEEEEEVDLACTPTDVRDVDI
Description: as §1, §2

CDK1/cyc A = target: T4, CDK1/cyc A (Homo sapiens, UniProt P06493); assay: as above; type: biochemical; details: ATP near Km; Ki calculated from 10-point IC50
T4 construct: purchased Reaction Biology Corp (contract assay)
T4 sequence (P06493 whole entry): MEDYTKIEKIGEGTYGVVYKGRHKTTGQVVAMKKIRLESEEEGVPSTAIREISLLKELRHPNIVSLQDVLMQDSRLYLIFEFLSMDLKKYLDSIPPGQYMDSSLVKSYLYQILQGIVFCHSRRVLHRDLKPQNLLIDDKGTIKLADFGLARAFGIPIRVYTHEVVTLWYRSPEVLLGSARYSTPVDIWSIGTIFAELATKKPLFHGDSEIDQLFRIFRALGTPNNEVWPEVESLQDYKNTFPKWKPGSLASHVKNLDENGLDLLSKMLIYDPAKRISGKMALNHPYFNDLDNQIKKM
T4 sequence (P20248 whole entry partner): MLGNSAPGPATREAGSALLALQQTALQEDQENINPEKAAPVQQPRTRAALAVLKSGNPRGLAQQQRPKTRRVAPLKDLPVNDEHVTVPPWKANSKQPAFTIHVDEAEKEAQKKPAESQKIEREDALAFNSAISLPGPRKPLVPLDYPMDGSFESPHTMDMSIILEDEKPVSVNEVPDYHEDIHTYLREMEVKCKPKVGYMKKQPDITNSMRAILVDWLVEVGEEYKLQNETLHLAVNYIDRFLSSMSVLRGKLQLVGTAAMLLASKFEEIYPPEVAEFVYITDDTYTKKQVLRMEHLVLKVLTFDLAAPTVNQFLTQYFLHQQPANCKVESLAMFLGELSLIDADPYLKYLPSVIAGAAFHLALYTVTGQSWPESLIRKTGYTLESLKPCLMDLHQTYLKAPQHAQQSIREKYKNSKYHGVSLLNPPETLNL
Description: as §1, §2

CDK1/cyc B = target: T5, CDK1/cyc B (Homo sapiens, UniProt P06493); assay: as above; type: biochemical; details: ATP near Km; Ki calculated from 10-point IC50
T5 construct: purchased Reaction Biology Corp (contract assay)
T5 sequence (P06493 whole entry): as the sequence (P06493 whole entry) above
T5 sequence (P14635 whole entry partner): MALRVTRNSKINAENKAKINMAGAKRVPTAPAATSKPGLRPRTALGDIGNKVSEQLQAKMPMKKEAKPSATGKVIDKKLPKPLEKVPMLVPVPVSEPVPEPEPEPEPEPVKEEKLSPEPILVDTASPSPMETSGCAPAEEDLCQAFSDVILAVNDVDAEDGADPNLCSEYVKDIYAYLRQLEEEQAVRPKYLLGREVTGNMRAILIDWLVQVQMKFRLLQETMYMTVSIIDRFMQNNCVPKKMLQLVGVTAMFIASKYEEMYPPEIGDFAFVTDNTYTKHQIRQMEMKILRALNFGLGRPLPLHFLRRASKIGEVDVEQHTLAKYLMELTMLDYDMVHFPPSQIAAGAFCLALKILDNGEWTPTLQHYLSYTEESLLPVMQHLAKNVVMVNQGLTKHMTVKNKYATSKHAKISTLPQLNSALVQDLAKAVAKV
Description: as §1, §2

CDK4/cyc D1 = target: T6, CDK4/cyc D1 (Homo sapiens, UniProt P11802); assay: as above; type: biochemical; details: ATP near Km; Ki calculated from 10-point IC50
T6 construct: purchased Reaction Biology Corp (contract assay)
T6 sequence (P11802 whole entry): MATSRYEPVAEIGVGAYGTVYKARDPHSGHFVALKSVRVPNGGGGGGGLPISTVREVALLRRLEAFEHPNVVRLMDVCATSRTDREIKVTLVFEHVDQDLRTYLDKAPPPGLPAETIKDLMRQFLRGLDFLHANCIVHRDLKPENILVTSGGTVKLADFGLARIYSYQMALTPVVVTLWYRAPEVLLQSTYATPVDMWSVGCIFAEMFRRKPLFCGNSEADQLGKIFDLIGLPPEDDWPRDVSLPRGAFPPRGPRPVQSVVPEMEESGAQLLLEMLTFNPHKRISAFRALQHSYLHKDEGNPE
T6 sequence (P24385 whole entry partner): as the sequence (P24385 whole entry partner) above
Description: as §1, §2

[5] = set-up: method as in earlier work; details: 350 mg/day, one patient out of 24; cited from earlier work
[6] = test system: MCL-1 in OCI-LY10 xenograft; assay: Western blot and IHC for MCL-1 in tumors after oral dosing; type: in vivo, mice; details: 100 mpk or 200 mpk oral daily for 5 days, tumors resected 4 hours after final dose
Description: as §3, with “µm. […]” for “µm.”

[7] = Modelled plasma drug levels from Phase 1 pharmacokinetic data; details: humans, 250 mg/day oral, modelled from Phase 1 PK data
Description: as §3, with “(Fig. 2a). Predicted mean plasma levels, once steady state is achieved after about 5 oral doses, fluctuate between 2 and 3.5 μM with an average near 3 μM for our model parameters. […] This was accompanied by apoptosis as represented by cleaved PARP induction starting at 1-2 μM in all models (Figs 2c, S2 and S5). Complete MCL-1 repression was typically observed at 3 μM exposures. […] Maximum,” for “Maximum,”, “([…]),” for “(pSer2),”, “Asterisks (*) denote p value < 0.05 calculated using the Student’s t-test for comparison of vehicle vs treatment.” left out, “μm.” for “µm.”

[8] = test system: BCL-xL in OCI-LY10 xenograft; assay: Western blot for BCL-xL in tumor lysates after oral dosing; type: in vivo, mice; details: 100 mpk or 200 mpk oral gavage for 5 days, compared to vehicle
From the text: Each lane represents an individual tumor (Tumor (T) #1–9). BCL-xl signals, normalized to β actin, were quantified and the average BCL-xl signal for each condition relative to vehicle is shown in the corresponding bar graph. Error bars represent SEM. Asterisks (*) denote p value < 0.05 calculated using the Student’s t-test for comparison of vehicle vs treatment.
20 micrograms of protein lysate from each condition were subjected to SDS-PAGE and transferred to 0.45 micron PVDF membranes (ThermoFisher) using manufacturer’s protocol, blocked for one hour in 5% milk at room temperature, probed with primary antibodies for cPARP (rabbit CST 5625), MCL-1 (rabbit CST 39224) or BCL-xL (rabbit CST 2764), followed by corresponding HRP-conjugated secondary antibodies (Jackson ImmunoResearch). β actin (mouse CST 12262) was used as loading control. ECL chemiluminescent substrate (Pierce) and autoradiographic film (ThermoFisher) were used for detection of signals. MCL-1 and BCL-xL signals were quantified using Image Studio Lite (LICOR Biosciences) using β actin for normalization. Student’s t-test was used to compare mean signal intensities across different conditions. The level of significance was set at 0.05.

Compound: CC1(C)CCC(CN2CCN(c3ccc(C(=O)NS(=O)(=O)c4ccc(NCC5CCOCC5)c([N+](=O)[O-])c4)c(Oc4cnc5[nH]ccc5c4)c3)CC2)=C(c2ccc(Cl)cc2)C1 [Venetoclax, reference compound]
tolerability, toxicity and body weight changes ([1]; xenografted mice (U2932, RIVA, OCI-LY10, NU-DHL-1, SU-DHL-4), oral regimens, first two cycles of treatment): not induce any significant body weight changes | BCL-xL levels in cell lysates (BCL-xL in OCI-LY10 cells): elevated levels of BCL-xL | median progression-free survival [2]: 1 month | overall response rate [2]: 18%

pKi (MAK): 8.97 | pKi (ICK): 7.93
Compound: CN1CC[C@H](c2c(O)cc(O)c3c(=O)cc(-c4ccccc4Cl)oc23)[C@H](O)C1 [Flavopiridol, reference compound]
oral bioavailability [3]: neither of these two agents are orally bioavailable

Compound: CN1CC[C@@H](c2c(O)cc(O)c3c(=O)cc(-c4ccc(C(F)(F)F)cc4Cl)oc23)[C@@H]1CO [Voruciclib]
exposure giving complete MCL-1 repression ([4]; 6 DLBCL models): ~3 µM | concentration at which cleaved PARP induction (apoptosis) starts ([4]; all 6 DLBCL models): 1 to 2 µM | phosphorylation of RNA POL II (RNA POL II (pSer2)): inhibition of phosphorylation of RNA POL II | pKi (MAK): 6.59 | pKi (CDK6/cyc D1): 8.53 | pKi (CDK1/cyc A): 8.04 | pKi (CDK1/cyc B): 8.27 | pKi (CDK4/cyc D1): 8.40 | pKi (ICK): 6.32 | patients with dose-limiting diarrhea [5]: 4% | tolerability, toxicity and body weight changes ([1]; mouse, in vivo, po): not induce any significant body weight changes | BCL-xL levels in cell lysates (BCL-xL in OCI-LY10 cells): elevated levels of BCL-xL | oral bioavailability ([3]; has been shown, reference not given): orally bioavailable | MCL-1 protein expression in tumors [6]: decreased in a dose-dependent manner | Predicted mean plasma levels at steady state (average) [7]: ~3 µM | BCL-xL levels in tumor lysates [8]: elevated levels of BCL-xL

Compound: CCc1cnn2c(NCc3ccc[n+]([O-])c3)cc(N3CCCC[C@H]3CCO)nc12 [dinaciclib]
oral bioavailability [3]: neither of these two agents are orally bioavailable
